Our source for the Ki values is patent publication US20070185078A1, “Substituted triazole derivatives as oxytocin antagonists” (priority 2004, published 2007).

What is called Ki is a measure of affinity in units of concentration, obtained from inhibition or displacement.

The assay has as its target T1, Oxytocin Receptor (CHO-OTR/NFAT-β-Lactamase cells) (Homo sapiens, UniProt P30559).
T1 construct: expressed in transfected cells; host or cells: CHO (CHO-OTR cell line further transfected with the NFAT-β-lactamase reporter)
T1 sequence (P30559 1-389): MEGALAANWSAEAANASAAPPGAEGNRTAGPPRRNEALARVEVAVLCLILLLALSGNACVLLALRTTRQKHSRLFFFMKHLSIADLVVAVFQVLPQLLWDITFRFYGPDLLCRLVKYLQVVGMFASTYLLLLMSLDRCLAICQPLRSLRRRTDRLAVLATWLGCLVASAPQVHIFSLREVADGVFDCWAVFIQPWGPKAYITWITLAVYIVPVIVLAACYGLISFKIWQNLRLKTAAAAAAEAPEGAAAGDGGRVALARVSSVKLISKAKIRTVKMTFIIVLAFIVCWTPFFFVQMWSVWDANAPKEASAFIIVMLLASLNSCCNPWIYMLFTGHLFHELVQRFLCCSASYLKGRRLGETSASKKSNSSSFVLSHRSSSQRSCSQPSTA
Briefly: Oxytocin Receptor Beta-Lactamase Assay. The format is cell-based. The note with it: oxytocin stimulation 4 hours, read-out: oxytocin antagonist activity, expressed as a Ki value. How it is done: A suitable assay for determining the oxytocin antagonist activity of a compound is detailed herein below.
Oxytocin Receptor Beta-Lactamase Assay
Cells used are CHO-OTR/NFAT-β-Lactamase. The NFAT-β-lactamase expression construct was transfected into the CHO-OTR cell line and clonal populations were isolated via fluorescence activated cell sorting (FACS). An appropriate clone was selected to develop the assay. […]
Cells grown at 80-90% confluence were harvested and counted. […]
Preparation of 1 ml of 6× Loading Buffer with Enhanced Loading Protocol (this requires scale-up according to number of plates to be screened) • 12 μl of solution A (1 mM CCF4-AM in Dry DMSO) was added to 60 μl of solution B (100 mg/ml Pluronic-F127 in DMSO+0.1% Acetic Acid) and vortexed. • The resulting solution was added to 925 μl of solution C (24% w/w PEG400, 18% TR40 v/v in water). • 75 μl of solution D was added (200 mM probenecid in 200 mM NaOH). • 10 μl of 6× Loading Buffer was added to all wells and incubated for 1.5 hrs-2 hrs at room temperature in the dark. • The plates were read using an LJL Analyst, Excitation 405 nm, Emission 450 nm and 530 nm, gain optimal, lagtime 0.40 μs integration, 4 flashes, bottom reading.

The structures appear in SMILES notation.

Turning to `COC(=O)N1Cc2nc(OC)ccc2-n2c(nnc2-c2ccc(-c3ccccc3OC)cc2)C1` [Example 8], the Ki turned out to be 3 nM.
